According to patent US9801885B2, “Transvaginal phosphodiesterase inhibitors for infertility treatment” (PROKREA BCN, S.L., priority 2011, dated 2017):
Entries after “also recorded” stand apart in the source; their conditions may differ.

Columns and labels:
[1] = test system: infertile men with asthenozoospermia; settings: 1200 mg daily for four months, cited from earlier work
couples with infertility = test: Assay of the effectiveness of intravaginal pentoxifylline in the treatment of couples with infertility; type: in vivo, human
Procedure: The most fertile days were determined by cervical mucus test, vaginal ultrasound, or ovulation test. An ovulation inducer, clomiphene or purified human gonadotrofin, irrespectively, was simultaneously administered to 6 of the couples. The gel was administered in 3 different cycles or in several days of the same cycle. A meeting was conducted with the patients between 15 and 20 hours after each administration and a microscopic examination of the endocervical exudate was performed.

[2] = test system: sperm of a semen sample from a patient with asthenozoospermia; test: In vitro assay of the effect of phosphodiesterase inhibitors on sperm motility; type: cell-based, human; parameters: key to Increase in sperm speed: the symbol ++ denotes a very significant increase in sperm motility; settings: vs untreated sample; for Increase in sperm type A + B: mixed 1:1 with semen; for Increase in sperm speed: subjective rating, all sperm types
Procedure: In each case the corresponding phosphodiesterase inhibitor (rolipram, milrinone, ibudilast and pentoxifylline) was dissolved in a commercial medium suitable for performing sperm preparations (SpermRinse®) to the desired concentration. […] A semen sample was taken from a patient with asthenozoospermia and it was kept at room temperature for 5 minutes after liquefaction, it was mixed with SpermRinse® solution without phosphodiesterase inhibitor in a volumetric ratio of 1:1. Another part of the semen was mixed also after liquefaction with the SpermRinse® solution containing the phosphodiesterase inhibitor also in a proportion of 1:1 by volume. For each observation, 3 microdrops of the preparation were used, they were placed under an optical microscope with 20× objective and Makler camera. A sperm count was performed, the number of type A sperm (advancing rapidly, with rectilinear trajectory) and type B sperm (advancing rapidly, with curvilinear trajectory) of each sample being counted. This was performed for the untreated sample and for the samples treated with the phosphodiesterase inhibitor. Three readings were made for each sample and the mean value was calculated. Likewise, a subjective observation of the increase of sperm speed of all the sperm types was also performed for the samples treated with the phosphodiesterase inhibitor, with respect to the untreated samples.

[3] = microscopic examination 15 to 20 hours after transvaginal administration

| SMILES | pregnancies counted after oral treatment ([1]; 15 infertile men) | pregnancy percentage after oral treatment ([1]; 15 infertile men) [%] | sperm motility of the subjects treated ([1]; oral) | pregnancies achieved (couples with infertility; among 20 couples, transvaginal gel of Example 2) | cervical mucus characteristics (filancia, transparency, leukocytic diathesis) (couples with infertility; [3]) | type A sperm (WHO classification) counted in cervical exudate (couples with infertility; [3]) | sperm quality in terms of motility in cervical exudate (couples with infertility; microscopic examination 15 to 20 hours after transvaginal administration, asthenozoospermia and normospermia) | side effects due to the treatment (couples with infertility; transvaginal administration in women) | pregnancy percentage (effectiveness) (couples with infertility; transvaginal, three single-doses of 10 g gel of Example 2 (4% pentoxifylline), after coitus, 20 couples) [%] | Increase in sperm type A + B ([2]; 1 μM in SpermRinse) | Increase in sperm speed ([2]; 1 μM) | Increase in sperm type A + B ([2]; 100 μM in SpermRinse) | Increase in sperm speed ([2]; 100 μM) |
| --- | --- | --- | --- | --- | --- | --- | --- | --- | --- | --- | --- | --- | --- |
| CC(=O)CCCCn1c(=O)c2c(ncn2C)n(C)c1=O [Pentoxifylline, 3,7-dihydro-3,7-dimethyl-1-(5-oxohexyl)-1H-purine-2,6-dione] | 2 | 13.3 | substantial improvement in sperm motility | 4 | maintains and even improves the characteristics of cervical mucus; also recorded: improvement in the characteristics of cervical mucus | significant number of type A sperm | improvement in sperm quality in terms of motility | not observed in any case; also recorded: does not cause any type of allergy or side effect | 20 | ++ (the symbol ++ indicates an increase greater than 40% in the A+B sperm type count) | ++ |  |  |
| CC(C)C(=O)c1c(C(C)C)nn2ccccc12 [Ibudilast, 2-methyl-1-(2-(1-methyethyl)pyrazolo(1,5-a)pyridin-3-yl)-1-propanone] |  |  |  |  |  |  |  |  |  |  |  | ++ (the symbol ++ indicates an increase greater than 40% in the A+B sperm type count) | ++ |
| Cc1[nH]c(=O)c(C#N)cc1-c1ccncc1 [Milrinone, 1,6-dihydro-2-methyl-6-oxo-(3,4′-bipyridine)-5-carbonitrile] |  |  |  |  |  |  |  |  |  | ++ (the symbol ++ indicates an increase greater than 40% in the A+B sperm type count) | ++ |  |  |
